Results reported in patent US10125101B2, “Indanylaminopyridylcyclopropanecarboxylic acids, pharmaceutical compositions and uses thereof” (Boehringer Ingelheim International GmbH, priority 2016, dated 2018).
In brackets after ≈: the same amount, converted by molar mass. Where two headings read alike, the source gives them in different places.

Assays:
human GPR40 receptor = human GPR40 receptor (Homo sapiens (Human), UniProt O14842); assay: IP1 accumulation measurements using the IPOne assay system; format: cell-based
Chain of human GPR40 receptor (O14842 whole entry): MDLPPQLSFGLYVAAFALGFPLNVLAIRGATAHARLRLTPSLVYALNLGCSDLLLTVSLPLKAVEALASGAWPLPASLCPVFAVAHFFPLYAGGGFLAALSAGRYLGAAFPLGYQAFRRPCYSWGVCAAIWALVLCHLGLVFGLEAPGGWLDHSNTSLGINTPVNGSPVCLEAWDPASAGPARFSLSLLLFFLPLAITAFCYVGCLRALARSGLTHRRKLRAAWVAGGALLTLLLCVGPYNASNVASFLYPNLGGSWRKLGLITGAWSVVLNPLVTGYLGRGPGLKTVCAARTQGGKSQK
Method: IP1 accumulation measurements using the IPOne assay system—1321N1 cells stably expressing human GPR40 receptor (Euroscreen, Belgium) are seeded 24 h before the assay in white 384-well plates in culture medium containing 10% FCS, 1% Na-Pyruvate and 400 μg/mL G418. IP1 is assayed according to the manufacturer's description (Cisbio Bioassays, France). In brief, the assay is started by substitution of the culture medium by stimulation buffer (Hepes 10 mM, CaCl2 1 mM, MgCl2 0.5 mM, KCl 4.2 mM, NaCl 146 mM, glucose 5.5 mM and LiCl 50 mM, pH 7.4). Cells are stimulated for 1 h at 37° C., 5% CO2 by addition of the compounds that are diluted in stimulation buffer containing LiCl. Assays are stopped by adding HTRF-conjugates (IP1-d2 and Anti-IP1 cryptate Tb) and lysis buffer, provided by the manufacturer. After an incubation time of 1 h at room temperature plates are measured using an EnVision™, Perkin Elmer. The obtained fluorescence ratios at 665/615 […] are then used to calculate the pEC50 values using Assay Explorer 3.3 Software (Accelrys, Inc.) by interpolation using an IP1 reference curve and subsequent sigmoidal curve fitting allowing for a variable hill slope.

[1] = Chemical stability (degradation kinetics) in acidic aqueous media; format: physicochemical; conditions: pH value ca. 1.2 (acetonitrile/0.1 M aqueous HCl 2:3), 37° C.
Method: Degradation kinetics is used to simulate chemical stability of compounds in the acidic part of the gastro intestinal tract. […] Their application as medical drugs to treat human diseases is therefore less restricted and troublesome.
The chemical stability of the compounds of the invention at pH value of ca. 1.2 is determined as follows:
Compound is dissolved in an HPLC vial either in a mixture of acetonitrile/0.1 M aqueous HCl (2:3; pH ca. 1.2) or in a mixture of acetonitrile/McIlvaine buffer pH 7.4 (2:3) to get a concentration of approximately 0.25 mg/ml. The vial was then transferred into an HPLC autosampler system and maintained at a temperature of 37° C. A first sample is taken and injected immediately into a standard HPLC system with a UV DAD detector. Further samples are injected after 2, 4, 6, 8 and 10 hours. Amount of degraded compound is measured by determining the recovery rate of compound [%] for each injection using an HPLC standard gradient method. Therefore the peak area of the main peak for the first injection (AUt0) is determined and set as 100%. Peak area of the main peak is determined also for the further injections (AUtn, n=2, 4, 6, 8, 10) and expressed as fraction of (AUt0)/(AUtn, n=2, 4, 6, 8, 10) [%].

Aqueous solubility = format: physicochemical; conditions: buffer pH 2.2, 24 h shaking, 2.5% DMSO; for solubility at 24 h: aqueous buffer, kinetic from dmso stock
Method: Starting from a 10 mM DMSO stock solution aliquots are diluted with acetonitrile/water (1/1) or buffer, respectively. After 24 h of shaking, the solutions are filtrated and analyzed by LC-UV. The amount dissolved in buffer is compared to the amount in the acetonitrile solution.

[2] = biological target: cytochrome P450 2C8-isoenzyme (Homo sapiens (Human), UniProt P10632); assay: Inhibition of CYP-2C8 (amodiaquine deethylation, human liver microsomes); format: in vitro ADME; conditions: amodiaquine 1 μM, 37° C.
Chain of cytochrome P450 2C8-isoenzyme (P10632 whole entry): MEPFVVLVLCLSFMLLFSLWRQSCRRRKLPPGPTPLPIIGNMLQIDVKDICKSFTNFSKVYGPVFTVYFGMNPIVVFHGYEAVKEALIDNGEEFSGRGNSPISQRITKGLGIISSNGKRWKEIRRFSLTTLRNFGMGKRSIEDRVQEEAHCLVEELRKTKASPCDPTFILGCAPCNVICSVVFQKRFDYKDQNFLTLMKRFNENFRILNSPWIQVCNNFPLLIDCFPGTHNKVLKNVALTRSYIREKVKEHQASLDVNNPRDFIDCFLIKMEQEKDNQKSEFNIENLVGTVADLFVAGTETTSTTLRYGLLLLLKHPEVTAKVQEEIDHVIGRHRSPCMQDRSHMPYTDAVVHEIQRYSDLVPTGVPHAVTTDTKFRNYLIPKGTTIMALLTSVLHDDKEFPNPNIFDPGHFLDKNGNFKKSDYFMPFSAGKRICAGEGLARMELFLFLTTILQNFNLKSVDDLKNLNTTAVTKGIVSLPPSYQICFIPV
Method: (§1) All assays are carried out on a robotic system in 96 well plates. The final incubation volume contains TRIS buffer (0.1 M), MgCl2 (5 mM), human liver microsomes (0.05 mg/mL), amodiaquine (1 μM) and the test compound at five different concentrations or no compound (high control) in duplicate (e.g. highest concentration 10-50 μM with subsequent serial 1:4 dilutions). Following a short preincubation period, reactions are started with the cofactor (NADPH, 1 mM) and stopped by cooling the incubation down to 8° C. and subsequently by addition of one volume of acetonitrile. An internal standard solution—the stable isotope d5-desethylamodiaquine—is added after quenching of incubations. Peak area analyte (=metabolite formed) and internal standard is determined by LC-MS/MS. The resulting peak area ratio analyte to internal standard in these incubations is compared to a control activity containing no test compound. Within each of the assay runs, the IC50 of a positive control inhibitor (Montelukast) is determined.

[3] = biological target: cytochrome P450 2C9-isoenzyme (Homo sapiens (Human), UniProt P11712); assay: Inhibition of CYP-2C9 (diclofenac hydroxylation, human liver microsomes); format: in vitro ADME; conditions: diclofenac 10 μM, 37° C.
Chain of cytochrome P450 2C9-isoenzyme (P11712 whole entry): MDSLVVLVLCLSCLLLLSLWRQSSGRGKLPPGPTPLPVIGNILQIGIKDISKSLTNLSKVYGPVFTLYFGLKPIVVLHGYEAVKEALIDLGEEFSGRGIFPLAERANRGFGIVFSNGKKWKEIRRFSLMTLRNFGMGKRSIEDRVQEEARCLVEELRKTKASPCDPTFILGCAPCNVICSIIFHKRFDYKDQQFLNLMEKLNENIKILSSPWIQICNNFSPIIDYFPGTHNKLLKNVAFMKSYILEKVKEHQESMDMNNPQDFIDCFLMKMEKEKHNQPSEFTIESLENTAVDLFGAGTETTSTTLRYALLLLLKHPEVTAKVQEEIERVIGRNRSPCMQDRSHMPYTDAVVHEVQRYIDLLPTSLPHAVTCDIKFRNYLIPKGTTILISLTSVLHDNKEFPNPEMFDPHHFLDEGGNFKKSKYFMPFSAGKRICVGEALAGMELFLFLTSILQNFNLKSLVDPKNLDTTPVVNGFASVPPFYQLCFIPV
Method: as §1, with “(0.1” for “(0.05”, “diclofenac (10” for “amodiaquine (1”, “(e.g.,” for “(e.g.”, “^13C6-hydroxydiclofenac—is” for “d5-desethylamodiaquine—is”, “(sulfaphenazole)” for “(Montelukast)”

[4] = 1321N1 cells stably expressing human GPR40, 1 h stimulation, read-out: EC50
[5] = head-to-head compilation, given as IC50, values equal the EC50 of Table 2, read-out: GPR40: IC50

| EC50 (human GPR40 receptor; [4]) [µM] | Amount of degradation after 2 h [1] | solubility at 24 h (Aqueous solubility) [µg/mL] | IC50 [2] [µM] | IC50 [3] [µM] | EC50 (human GPR40 receptor; [5]) [µM] | Solubility at pH value 2.2 (Aqueous solubility) [μg/mL] | Compound |
| --- | --- | --- | --- | --- | --- | --- | --- |
| 0.035 | <0.5% | 121 (≈ 233 µM) | > 50 | > 50 |  |  | Cc1cc(O[C@@H]2COC[C@H]2O)cc(C)c1-c1ccc(F)c2c1CC[C@H]2Nc1ccc([C@H]2C[C@@H]2C(=O)O)nc1 [Example 5, (1S,2S)-2-(5-{(R)-7-Fluoro-4-[4-((3R,4R)-4-hydroxy-tetrahydro-furan-3-yloxy)-2,6-dimethyl-phenyl]-indan-1-ylamino}-pyridin-2-yl)-cyclopropanecarboxylic acid] |
| 0.002 |  |  | 15 | 36 |  | 91 | Cc1cnc(-c2cc(C)c(-c3ccc(F)c4c3CC[C@H]4Nc3ccc([C@H]4C[C@@H]4C(=O)O)nc3)c(C)c2)nc1 [Example 21] |
| 0.005 |  |  | 8 | 19 |  | 106 | COc1cc(-c2cc(C)c(-c3ccc(F)c4c3CC[C@H]4Nc3ccc([C@H]4C[C@@H]4C(=O)O)nc3)c(C)c2)ccn1 [Example 22] |
| 0.668 |  |  | 43 | > 50 |  | 97 | Cc1cc(C(=O)O)cc(C)c1-c1ccc(F)c2c1CC[C@H]2Nc1ccc([C@H]2C[C@@H]2C(=O)O)nc1 [Example 23] |
| 0.006 |  |  | 14 | 16 |  | 90 | Cc1cc(OCC2CCOCC2)cc(C)c1-c1ccc(F)c2c1CC[C@H]2Nc1ccc([C@H]2C[C@@H]2C(=O)O)nc1 [Example 26] |
| 0.148 |  |  | > 50 | > 50 |  | 112 | CNC(=O)c1cc(C)c(-c2ccc(F)c3c2CC[C@H]3Nc2ccc([C@H]3C[C@@H]3C(=O)O)nc2)c(C)c1 [Example 27] |
| 0.007 |  |  | 26 | > 50 |  | 123 | Cc1cc(OCC2CCOC2)cc(C)c1-c1ccc(F)c2c1CC[C@H]2Nc1ccc([C@H]2C[C@@H]2C(=O)O)nc1 (some centres unmarked) [Example 32] |
| 0.01 |  |  | 45 | > 50 |  | 111 | Cc1cc(OCC(C)(C)O)cc(C)c1-c1ccc(F)c2c1CC[C@H]2Nc1ccc([C@H]2C[C@@H]2C(=O)O)nc1 [Example 34] |
| 0.011 |  |  | 31 | > 50 |  | 106 | Cc1cc(OC2CCOCC2)cc(C)c1-c1ccc(F)c2c1CC[C@H]2Nc1ccc([C@H]2C[C@@H]2C(=O)O)nc1 [Example 35] |
| 0.019 |  |  | 41 | > 50 |  | 119 | Cc1cc(OCC2(O)CCOCC2)cc(C)c1-c1ccc(F)c2c1CC[C@H]2Nc1ccc([C@H]2C[C@@H]2C(=O)O)nc1 [Example 37] |
| 0.018 |  |  | > 50 | > 50 |  | >154 | Cc1cc(OCC2(O)CCS(=O)(=O)CC2)cc(C)c1-c1ccc(F)c2c1CC[C@H]2Nc1ccc([C@H]2C[C@@H]2C(=O)O)nc1 [Example 38] |
| 0.148 |  |  | > 50 | > 50 |  | 118 | Cc1cc(C(=O)N(C)C)cc(C)c1-c1ccc(F)c2c1CC[C@H]2Nc1ccc([C@H]2C[C@@H]2C(=O)O)nc1 [Example 39] |

Further lines, the molecule ahead of its results:

| Compound | EC50 (human GPR40 receptor; [4]) [µM] | Amount of degradation after 2 h [1] | solubility at 24 h (Aqueous solubility) [µg/mL] | IC50 [2] [µM] | IC50 [3] [µM] | EC50 (human GPR40 receptor; [5]) [µM] | Solubility at pH value 2.2 (Aqueous solubility) [μg/mL] |
| --- | --- | --- | --- | --- | --- | --- | --- |
| Cc1cc(-c2nnn(C)n2)cc(C)c1-c1ccc(F)c2c1CC[C@H]2Oc1ccc([C@H]2C[C@@H]2C(=O)O)cc1 [Example 15 in WO 2013/178575] |  | 3% |  |  |  |  |  |
| Cc1cc(OCCC(C)(C)O)cc(C)c1-c1ccc(F)c2c1CC[C@H]2Oc1ccc([C@H]2C[C@@H]2C(=O)O)cc1 [Example 17 in WO 2013/178575, reference compound] |  | 8% | < 1 | 6 | 14 | 0.004 | < 1 |
| Cc1cc(-c2nnn(CC(C)(C)O)n2)cc(C)c1-c1ccc(F)c2c1CC[C@H]2Nc1ccc([C@H]2C[C@@H]2C(=O)O)nc1 [Example 20] | 0.002 |  |  | 34 | > 50 |  | 113 |
| O=C(O)[C@H]1C[C@@H]1c1ccc(N[C@@H]2CCc3c(-c4c(Cl)cccc4Cl)ccc(F)c32)cn1 [Example 24] | 0.004 |  |  | 11 | 22 |  | >122 |
| Cc1cc(-c2ccn(C)c(=O)c2)cc(C)c1-c1ccc(F)c2c1CC[C@H]2Nc1ccc([C@H]2C[C@@H]2C(=O)O)nc1 [Example 29] | 0.004 |  |  | 14 | > 50 |  | 117 |
| O=C(O)[C@H]1C[C@@H]1c1ccc(N[C@@H]2CCc3c(-c4ccccc4C(F)(F)F)ccc(F)c32)cn1 [Example 31] | 0.027 |  |  | 15 | 31 |  | 87 |
| Cc1cc(-c2nnn(C)n2)cc(C)c1-c1ccc(F)c2c1CC[C@H]2Oc1ccc([C@H]2C[C@@H]2C(=O)O)cc1 [Example 33 in WO 2013/178575] |  | 8% |  |  |  |  |  |
| CC(C)c1ccccc1-c1ccc(F)c2c1CC[C@H]2Nc1ccc([C@H]2C[C@@H]2C(=O)O)nc1 [Example 36] | 0.015 |  |  | 10 | 22 |  | 91 |
| Cc1cc(-c2nnn(C)n2)cc(C)c1-c1ccc(F)c2c1CC[C@H]2Oc1ccc([C@H]2C[C@@H]2C(=O)O)cc1 [Example 45 in WO 2013/178575, reference compound] |  |  | < 1 | 5 | 10 | 0.008 | < 1 |
| Cc1cc(-c2nnn(C)n2)cc(C)c1-c1ccc(F)c2c1CC[C@H]2Oc1ccc([C@H]2C[C@@H]2C(=O)O)cc1 [Example 54 in WO 2013/178575] |  | 2.5%^ |  |  |  |  |  |
